Consider one molecule from patent US20190125822A1, “COMPOSITION FOR IMPROVING OR PREVENTING NONALCOHOLIC FATTY LIVER” (KOHJIN LIFE SCIENCES CO., LTD., priority 2015, published 2019).

Assay [1] relates to Mice (C57/B6J) fed with high-fat food. The conditions noted are these: 20 weeks old. The source says: Mice (C57/B6J, 8 weeks old male) were divided into 4 groups (5 animals each), and the first group (DB) was freely fed with ordinary food (CertifiedDiet “MF” manufactured by Oriental Yeast Co., ltd.). The second group (HFD) was freely fed with high-fat food (High Fat Diet 32, manufactured by CLEA Japan, Inc.), […].
When the mouse was 20 weeks old, the body weight, the liver weight, the serum aspartate aminotransferase (AST), the alanine aminotransferase (ALT), the serum triglyceride (TG), the free fatty acid value (FFA) and the total cholesterol value (T-cho) were measured.

The subject of assay [2] is subjects who had NAFLD in 31 IU/L or more of ALT. The settings on record: 300 mg per day oral.
The mark [3] stands for this setting: HFD6 and HFD60 groups in comparison to HFD group.
Where [4] appears, read: high-fat food, glutathione 6 and 60 mg/kg/day in water.

Regarding `N[C@@H](CCC(=O)N[C@@H](CS)C(=O)NCC(=O)O)C(=O)O` [glutathione], in assay [1] (setting [3]), the “FFA (free fatty acid value)” value was “significant decrease” and the “T-cho (total cholesterol value)” value was “significant decrease”. In assay [1] (setting [4]), the liver weight result is “decreased dependently on the concentration” and the “ratio of liver weight/body weight” value is “decrease of the body weight ratio was also recognized”. Also, the body weight entry in assay [1] (high-fat food, glutathione 6 or 60 mg/kg/day in water) was “decrease of the body weight was recognized”. The “TG (triglyceride value)” value in assay [1] (serum, HFD6 and HFD60 groups in comparison to HFD group) was “significant decrease”. Moreover, in assay [2] (after treatment, individual subject per table row), the “FibroScan (after treatment) CAP” value is recorded as 280 dBe. Moreover, in assay [2] (Case IDs 1 to 9 of 16 subjects, at any week after initiation), the “improvement of ALT after administration in comparison to ALT before the administration (0 wk)” value was no less than 20%.
